Data reported in US20230027864A1, “COMPOSITIONS AND METHODS FOR DELIVERY OF AGENTS TO IMMUNE CELLS” (ModernaTX, Inc., priority 2018, published 2023).

Assays:
monocytes = assay: Sterol panel in LNPs, delivery in vivo (FIG. 40); conditions: Cmpd X/sterol/Cmpd 428 LNPs, Y-axis percentage of CD3+ cells in spleen expressing mOX40L
Protocol: In a second series of experiments, an additional panel of sterol compounds was tested in LNPs for monocyte delivery in vivo. The results for this panel of sterols tested for the structural lipid component of the LNP are shown in the bar graph of FIG. 40. […] The bars/lanes on the X-axis labeled 1-9 correspond to the following LNP compositions tested for mRNA delivery in vivo: Lane 1 is PBS. Lane 2 is Cmpd X/Cmpd 428, Lane 3 is Cmpd X/β sitosterol/Cmpd 428, Lane 4 is Cmpd X/β-sitosterol-d7/Cmpd 428, Lane 5 is Cmpd X/brassicasterol/Cmpd 428, Lane 6 is Cmpd X/unnamed sterol/Cmpd 428, Lane 7 is Cmpd X/Cmpd S-30/Cmpd 428, Lane S is Cmpd X/Cnpd S-32/Cmpd 428, Lane 9 is Cmpd X/Cmpd S-31/Cmpd 428.

T cells [1] = assay: LNP association and GFP mRNA expression in T cells of human PBMCs; type: cell-based; conditions: third series, in vitro, FIG. 35
CD3+ T cells = assay: T cell transfection in vitro with varied LNP components, mOX40L mRNA; type: cell-based, human; conditions: as ionizable lipid or PEG lipid component, Table 23
Protocol: In this example, human peripheral blood mononuclear cells (PBMCs) from two different Donors (Donor 1 and Donor 2) were incubated in the presence of mRNA encoding mouse OX40L (mOX40L) (20 ng or 50 ng) encapsulated in each of the three different LNP compositions tested in Example 3. PBS was used as a negative control. Human PBMCs were incubated ex vivo with the various LNPs at 37° C. After 24 hours, cells were analyzed by flow cytometry for mOX40L protein expression in CD3+ T cells.
In this Example, LNPs were made with various lipid components and at different ratios and were tested for their ability to transfect T cells in vitro. Transfection was performed as in Example 5 using LNPs encapsulating an mRNA encoding mouse OX40L.
In a first set of experiments, phytosterol was used as the immune cell delivery potentiating lipid and other lipid constituents of the LNP were varied.

T cells [2] = assay: LNP association and GFP mRNA expression in T cells of human PBMCs; type: cell-based; conditions: PEG lipid component of the LNP, FIG. 33
Protocol: In a second series of experiments, additional compounds, were tested in the LNPs for their ability to enhance delivery to T cells. For these experiments, the association of the LNP with cells and the expression of mRNA-encoding protein within the transfected cells was assessed at the cell-by-cell level. Peripheral blood mononuclear cells (PBMCs) from human donors were used. PBMCs were predominately T cells (40-60%), B cells (3-15%), and monocytes (15-35%), but also contained small numbers of other cell types. LNPs were incubated with serum or PBS for 30 minutes and then added to the PBMCs. The LNP concentration was 0.050 mg/ml, the LNP volume was 0.1 ml.
LNPs contained 0.1% Rhodamine-DOPE in addition to the other LNP components to facilitate detection. Thus, the ratios set forth in the tables below include 0.1 for the rhodamine label. For example, 50:10:10:27.9:2:0.1 AL:DSPC:chol:sterol:Cmp 428 indicates 50% amino lipid as the ionizable lipid, 10% DSPC as the phospholipid, 10% cholesterol, 27.9% phytosterol, 2% Compound 428 as the PEG lipid and 0.1% for the rhodamine-DOPE label. To prepare a non-labeled LNP, the same ratios are used except that the 0.1% rhodamine label is omitted and an additional 0.1% of structural lipid (cholesterol or cholesterol/phytosterol blend) is used (e.g., 27.9% becomes 28%).
Cells were sorted by flow cytometry into subsets based on expression of certain markers: CD3 (T cells), CD20 (B cells), and CD3-, CD20-, CD14+(Monocytes).
mRNA encoding GFP was used as a model agent to effect expression of an intracellular protein.
When conducting flow cytometry, the Y-axis was signal from the rhodamine tag on the LNP and the X-axis was the GFP signal showing expression of the protein.
The “associated” population is any rhodamine+ and/or GFP+ cell and the percent of these cells was calculated by dividing by the total number of cells. The “expression” population is any GFP+ cell and the percent of these cells was calculated by dividing by the total number of cells. The percent of associated cells expressing was obtained by dividing the % expressing cells by the % associated cells.

| SMILES | immune cell delivery potentiating ability in monocytes, additional sterol panel in vivo (monocytes) | immune cell delivery potentiating ability in T cells, additional sterol panel (T cells [1]) | delivery to T cells with phytosterol-containing LNP (CD3+ T cells) | immune cell delivery potentiating ability in T cells, PEG lipid panel (T cells [2]) |
| --- | --- | --- | --- | --- |
| CC(C)[C@@H](C)/C=C/[C@@H](C)[C@H]1CC[C@H]2[C@@H]3CC=C4C[C@@H](O)CC[C@]4(C)[C@H]3CC[C@]12C [brassicasterol] | exhibited immune cell delivery potentiating ability in monocytes | exhibited immune cell delivery potentiating ability in T cells | – | – |
| CCCCCCCCCCCCCCCCCC(=O)OCCOCCOCCOCCOCCOCCOCCOCCOCCOCCOCCOCCOCCOCCOCCOCCOCCOCCOCCOCCOCCOCCOCCOCCOCCOCCOCCOCCOCCOCCOCCOCCOCCOCCOCCOCCOCCOCCOCCOCCOCCOCCOCCOCCOCCO [Compound 428] | – | – | enhanced delivery to T cells | exhibited immune cell delivery potentiating ability in T cells |
